From patent US7820692B2, “Tetrahydro isoquinoline derivatives, preparation methods and medicinal uses thereof” (China Pharmaceutical University, priority 2006, dated 2010) come the findings set out here.

One series addresses κ-opioid receptor (Homo sapiens, UniProt P41145). Kind of series: Radioligand receptor binding assay, competition with [3H]diprenorphine, κ-receptor. The procedure: (§1) The experiment test tubes are divided into total binding tubes and non-specific binding tubes, and several groups of sample tubes added with competitive ligand in different concentrations are provided. The total binding tube is added with expressed membrane receptor protein equivalent to 20 μg and [^3H] diprenorphine (0.5 nM) (1.44 Pbq/mol broad spectrum opioid antagonist, Amersham), the corresponding non-specific binding tubes are further added with 1 μM Naloxone (broad spectrum opioid antagonist, Sigma), the sample tubes are added with different concentrations compounds which are to be screened, the final volume is regulated to 100 μl with 50 mM Tris(Amresco)-HCl (pH 7.4). Incubation is performed at 30° C. for 30 min, and the tubes are placed into ice water to stop reaction. Negative pressure filter is performed in Millipore sample collector via GF/(Whatman) glass fiber filter paper. Ice cold 50 mM Tris-HCl (pH 7.4) is used to wash the filter paper for three times, each for 4 ml; Dry the filter paper and place it in 0.5 ml Eppendorff tube, and add 0.5 ml of lipophilic scintillator liquid (Reagent No. 1 Factory Of Shanghai Chemical Reagent Co. Ltd). Beckman LS 6500 multifunctional liquid scintillation counter is adopted for measuring radiation intensity, calculating inhibition rate is calculated, each concentration has three duplicated tubes, and each tube is independently tested for 3-4 times.
(§2) IC50 value is calculated by software Prism 4.0.
(§3) Ki=IC50/(1+[L]/Kd), ([L] is the concentration of added marked ligand, and Kd is equilibrium dissociation constant of radioligand).

The next series concerns the target μ-opioid receptor (Homo sapiens, UniProt P35372). Put plainly: Radioligand receptor binding assay, competition with [3H]diprenorphine, μ-receptor. The procedure:
as §1, §2, §3

The test system of series [1] is Kuming mice. Kind of series: Physical dependence test after chronic administration (Naloxone-induced jumping and weight reduction). Format: in vivo. Conditions: escalating 50-300 μg/kg s.c. twice daily for 10 days, then Naloxone 3 mg/kg peritoneally. The method, then: Kuming mice (18-20 g, male) are selected, and divided into physiological saline group, morphine group, and I-6 group.
physiological saline group: subcutaneous injection, 0.2 mL for each mice, continuous administration for 10 days.
(§4) morphine group: subcutaneous injection, administration according to an escalating dose schedule, 20, 40, 60, 80, 100 mg/kg, continuous administration for 10 days, two injections per day at 8 hours interval, administration with escalating concentration, and 100 mg/kg is maintained from the fifth injection until Day 10.
I-6 group: subcutaneous injection, administration according to an escalating dose schedule, 50, 100, 150, 200, 300 μg/kg, continuous administration for 10 days, two injections per day at 8 hours interval, administration with escalating concentration, and 300 μg/kg is maintained from the fifth injection until Day 10.
2 hours after the end administration on the Day 10, each group is peritoneally administered with Naloxone 3 mg/kg, and jump times and weight reduction of mice within 20 min in each group are observed.

The test system of series [2] is Kuming mice. Kind of series: Mice hot plate method analgesic test. Format: in vivo. The method, then: (§5) Analgesic efficacy of the subject compound is determined by using model derived from mice hot plate method and mice writhing method (Methodology of Pharmacological Experiment, edition II, Xu Shuyun, People Medical Publishing Company, 1991).
Experiment Animal: Kuming Mice (Female, 18-22 g)
(§6) • (1) Selection of normal mice: the test room temperature is controlled at about 22° C., temperature of the hot plate of an pain threshold dector is regulated to 55° C., the duration from the moment the mice is put on the hot plate to the moment the mice start to lick the hind paw is recorded as pain threshold value, the test is repeated twice at interval of 20 min, and the mice with average pain threshold value no more than 30 sec is qualified mice. • (2) Experimental mice: the qualified mice are randomly divided into groups each having 10 mice, and subjected to subcutaneous injection. • Each group is tested for mice pain response time once every 5, 15, 30, 50, and 60 minute after administration, and the medicine is believed to be effective which response time beyond 1 min. • Mice Writhing Assay • I-6 is administered via subcutaneous injection, then 0.6% acetic acid solution (10 ml/kg) is administered after 30 min, and the number of the mice writhing within 15 min is recorded. 3.
In general terms: Thermal pain tests record how soon the animal reacts.

The test system of series [3] is Kuming mice. Put plainly: Influence of compound I-6 on physical dependence caused by morphine. It is filed as in vivo. The conditions noted are these: I-6 300 μg/kg peritoneally 10 min before morphine every day. The procedure: Kuming mice (18-20 g, male) are selected and divided into physiological saline group, morphine group, and I-6+morphine group.
physiological saline group: subcutaneous injection, 0.2 mL for each mouse, continuous administration for 10 days.
as §4
I-6+morphine group: subcutaneous injection of morphine according to 20, 40, 60, 80, 100 mg/kg, continuous administration for 10 days, two injections per day at 8 hours interval, administration with escalating concentration, and 100 mg/kg is maintained from the fifth injection until Day 10; 300 μg/kg of compound I-6 is administered peritonally 10 min before administration of morphine every day.
2 hours after the end administration on Day 10, each group is peritoneally administered with Naloxone 3 mg/kg, and jump times and weight reduction of mice within 20 min in each group are observed.

Series [4] deals with Kuming mice. Put plainly: Mice writhing assay (acetic acid) analgesic test. Conditions: subcutaneous injection, 0.6% acetic acid after 30 min, writhing within 15 min. Format: in vivo. The method, then: as §5, §6
(Writhing tests count abdominal constrictions after an irritant is injected.)

Series [5] concerns Kuming mice. Put plainly: Analgesic tolerance test (hot plate, 9 days administration). It is filed as in vivo. The conditions noted are these: I-6 25 μg/kg subcutaneous injection Day 1-9, hot plate. The method, then:
Kuming mice (18-20 g, male) are selected for test, and divided into physiological saline group, morphine group, and I-6 group.
physiological saline group: subcutaneous administration, 0.2 mL for each mice.
Morphine group: Day 1-3, subcutaneous injection, 7 mg/kg • Day 4-7, subcutaneous injection, 10 mg/kg • Day 8-9, subcutaneous injection, 15 mg/kg I-6 group: Day 1-9, subcutaneous injection, 25 μg/kg
Hot plate method in mice is adopted as model, administration lasts for 9 days, analgesic effects before and after administration are determined every day, and if analgesic effect is attenuated after continuous administration of 3 days, the drug concentration will be increased, and if analgesic effect don't change, the drug concentration will not be changed.

Series [6] in a line: Acute toxicity test of compound I-6. Format: in vivo, mice. Conditions: both sexes, Kunming, mouse, in vivo, intraperitoneal; peritoneal administration, mice, observation two weeks. The procedure: (§7) Acute toxicity of compound I-6 is determined according to Methodology of Pharmacological Experiment, edition II, Xu Shuyun (People's Medical Publishing House, 1991), and An Introduction of the Assessment for Novel Drugs, edition II, Qin Boyi (People's Medical Publishing House, 1999).
(§8) Kunming mice (body weight 18-22 g, female 6 weeks old, male 4-5 weeks) are provided, randomly divided into groups each having 20 mice (half female, half male). The mice are subjected to adaptive feeding for 1-2 days before administration. Compound I-6 is administered peritoneally for 4 dosage groups, 60 mg/kg, 50 mg/kg, 40 mg/kg, and 30 mg/kg. The mice are normally fed after administration, their conditions, such as drinking, feeding, excreting, activity, and hair color, are observed everyday, their body weights are weighed every other day, and the observation lasts for two weeks.

Another series deals with Kunming mice. Kind of series: Acute toxicity test of compound I-6. It is filed as in vivo. Conditions: peritoneal administration at 30 mg/kg. The method, then: as §7, §8

Each structure is given as a SMILES string.

On to `O=C1CC(C(=O)N2CCc3ccccc3C2CN2CCCC2)c2cc(Cl)ccc21` (stereo not shown) [I-6, 1-(pyrrolidine-1-methyl)-2-(6-chloro-2,3-dihydro-inden-3-keto-1-carbonyl)-1,2,3,4-tetrahydroisoquinoline], for which the Ki (as a rule, a dissociation constant, usually derived from enzyme kinetics or from competition with a known ligand) on κ-opioid receptor (Ki=IC50/(1+[L]/Kd)) was 0.0299 nM; on μ-opioid receptor (Ki=IC50/(1+[L]/Kd)), 668 nM. On κ-opioid receptor (competition binding with κ-receptor, compound at 1 × 10^−5 M, [3H]diprenorphine 0.5 nM), this compound showed a dpm of 201.00 dpm. Also, the IC50 (as a rule, the concentration at which inhibition is half-maximal) stood at 0.105 nM on κ-opioid receptor (competition binding, κ-opioid receptor) and 2000 nM at μ-opioid receptor (competition binding, μ-opioid receptor). In addition, the inhibition (as a rule, the relative decrease from the control value, in per cent) at 10 µM at κ-opioid receptor (compound at 1 × 10^−5 M, read-out: inhibition rate %) worked out at 100%. For the same compound, the “receptor selectivity μKi/κKi” value on μ-opioid receptor (ratio of μ Ki to κ Ki) is 22341. The “physical dependence after continuous administration” value in the series on Kuming mice [1] is “causes no physical dependence like morphine”. In addition, in the series with Kuming mice [2] (mice hot plate method and mice writhing method), the “analgesic efficacy compared with morphine” value is listed as “powerful analgesic efficacy”. The “Analgesic experiment result, Mice hot plate method” value with Kuming mice [2] (subcutaneous injection, hot plate 55° C., value with range in brackets) is listed as 25.000(18.675-33.467) ug/kg. Moreover, the “effect on physical dependence caused by morphine” value in the series with Kuming mice [3] (10 days) is given as “can resist physical dependence caused by morphine”. Further, the “jump times of Naloxone-induced mice” value in the series on Kuming mice [3] (Naloxone 3 mg/kg on Day 10) is recorded as “significantly reduce jump times”. The “Analgesic experiment result, Mice writhing assay” value in the series with Kuming mice [4] is given as 3.313(1.775-6.183) ug/kg. Also, the analgesic tolerance entry in the series on Kuming mice [5] is on record as “does not produce significant tolerance phenomena”. Also, in series [6], the LD50 (as a rule, the dose expected to kill half of the subjects tested) at 2 weeks was found to be 40.1 mg/kg. Besides, the “influence on drinking, feeding, excreting, activities and hair color” value in the series with Kunming mice is “no influence”.
